Tests used:
[1] = Recovery of epirubicinol following intraperitoneal epirubicin at 4 mg.Kg-1 dose in mouse; type: ADME, organism-based, CD-1, Plasma; settings: in vivo, ip
[2] = (§1) Urinary excretion of epirubicinol following epirubicin at 50 mg.m-2 dose in cancer patients; type: ADME, organism-based, Urine; settings: human, in vivo; at 50 mg/m2
[3] = Detection of epirubicinol in plasma following single intravenous epirubicin at 10 mg.Kg-1 dose in female mouse bearing colon tumor; type: ADME, organism-based, BALB/c; settings: in vivo
[4] = as §1; type: ADME, organism-based, Urine; settings: human, in vivo; at 50 mg/m2; remark: listed apart in the source
[5] = Biliary excretion of epirubicinol following epirubicin at 50 mg.m-2 dose in cancer patients; type: ADME, organism-based, Bile; settings: human, in vivo; at 50 mg/m2
[6] = (§2) Urinary elimination of 4'-epiadriamycinol following intravenous bolus 4'-epiadriamycin at 10 mg.Kg-1 dose in rat; type: ADME, organism-based, SD, Urine; settings: in vivo
[7] = Detection of epirubicinol in tumor following single intravenous epirubicin at 10 mg.Kg-1 dose in female mouse bearing colon tumor; type: ADME, organism-based, BALB/c, Neoplasm; settings: in vivo
[8] = Recovery of epirubicinol following intravenous epirubicin at 4 mg.Kg-1 dose in rat; type: ADME, organism-based, SD, Plasma; settings: in vivo
[9] = AUC(0-24 h) of epirubicinol following intravenous epirubicin at 1 mg.Kg-1 dose in rabbit; type: ADME, organism-based, Oryctolagus cuniculus, New Zealand White, Plasma; settings: in vivo
[10] = as §2; type: ADME, organism-based, SD, Urine; settings: in vivo; remark: listed apart in the source
[11] = AUC(0-24 h) of epirubicinol following intravenous epirubicin at 3 mg.Kg-1 dose in rabbit; type: ADME, organism-based, Oryctolagus cuniculus, New Zealand White, Plasma; settings: in vivo
[12] = Recovery of epirubicinol following intraperitoneal epirubicin at 4 mg.Kg-1 dose in hamster; type: ADME, organism-based, Cricetulus griseus, Plasma; settings: chinese hamster, in vivo, ip
[13] = Urinary excretion of epirubicinol following epirubicin at 60-150 mg.m-2 dose in cancer patients; type: ADME, organism-based, Urine; settings: human, in vivo
[14] = Recovery of epirubicinol following intravenous epirubicin at 1.5 mg.Kg-1 dose in man; type: ADME, organism-based, Plasma; settings: human, in vivo
[15] = Urinary excretion of epirubicinol following epirubicin at 75-90 mg.m-2 dose in cancer patients; type: ADME, organism-based, Urine; settings: human, in vivo
[16] = as §2; type: ADME, organism-based, SD, Urine; settings: in vivo; remark: listed apart in the source
[17] = Recovery of epirubicinol following intravenous epirubicin at 4 mg.Kg-1 dose in rabbit; type: ADME, organism-based, Oryctolagus cuniculus, New Zealand White, Plasma; settings: in vivo
[18] = AUC values (0-48 h) of epirubicinol in plasma following single intravenous epirubicin at 10 mg.Kg-1 dose in female mouse bearing colon tumor; type: ADME, organism-based, BALB/c; settings: in vivo
[19] = AUC values (0-48 h) of epirubicinol in heart following single intravenous epirubicin at 10 mg.Kg-1 dose in female mouse bearing colon tumor; type: ADME, organism-based, BALB/c; settings: in vivo
[20] = Detection of epirubicinol in heart following single intravenous epirubicin at 10 mg.Kg-1 dose in female mouse bearing colon tumor; type: ADME, organism-based, BALB/c; settings: in vivo
[21] = Urinary excretion of epirubicinol following epirubicin at 60 mg.m-2 dose in cancer patients; type: ADME, organism-based, Urine; settings: human, in vivo; at 60 mg/m2
[22] = AUC values (0-48 h) of epirubicinol in tumor following single intravenous epirubicin at 10 mg.Kg-1 dose in female mouse bearing colon tumor; type: ADME, organism-based, BALB/c, Neoplasm; settings: in vivo

## COc1cccc2c1C(=O)c1c(O)c3c(c(O)c1C2=O)C[C@@](O)(C(O)CO)C[C@@H]3O[C@H]1C[C@H](N)[C@@H](O)[C@H](C)O1 (some centres not stated)
[1]
  Compound recovery: 0.2 10^-9M
[2]
  Compound recovery: 4.1%
[3]
  Compound recovery: OUTCOME = Observed
[4]
  Compound recovery: 0.6%
[5]
  Compound recovery: 6.5%
[6]
  Compound recovery: 0.044%
[7]
  Compound recovery: OUTCOME = Not detected/not observed
[8]
  Compound recovery: 0.4 10^-9M
[9]
  AUC: 69.46 ng·h/mL
[10]
  Compound recovery: 0.03%
[11]
  AUC: 204.86 ng·h/mL
[12]
  Compound recovery: 3.3 10^-9M
[13]
  Compound recovery: 0.5%
[14]
  Compound recovery: 15 10^-9M
[15]
  Compound recovery: 0.8%
[16]
  Compound recovery: 0.024%
[17]
  Compound recovery: 23 10^-9M
[18]
  AUC: 0.5 nmol·min/mL
[19]
  AUC: 46 nmol·min/g
[20]
  Compound recovery: OUTCOME = Observed
[21]
  Compound recovery: 0.9%
[22]
  AUC: 0 nmol·min/g

Source: ChEMBL document CHEMBL3508140 (2016)
